The text below walks through data of patent US8637090B2, “Gallium formulation for the treatment and prevention of infectious diseases” (Aridis Pharmaceuticals, priority 2009, dated 2014).

The structures appear in SMILES notation. Where two headings read alike, the source gives them in different places.

Data set [1] in a line: Crystallinity of spray dried gallium powders by powder X-ray diffraction. The class given is physicochemical. To be noted: qualitative analysis of crystallinity, XRD 5° to 75° 2θ. On the procedure: Crystallinity of the spray dried gallium powders was determined using a Philips X-Pert Pro MPD powder diffractometer. The radiation used was generated by a Cu Kα source with a wavelength of 1.5406 Å at 45 kV and 40 mA. Samples were scanned from 5° to 75° 2θ at a scanning rate of 1.2° 2θ/min using a slit width of 0.25°. Particular emphasis was placed on determining the effects of the various excipients on the crystallinity of the spray dried particles. The composition of the gallium formulations examined, as well as the residual moisture content and a qualitative analysis of crystallinity are shown in Table 8. X-ray diffractometer (XRD) scans reveal that spray dried gallium nitrate is amorphous as are mannitol and L-leucine (FIG. 5). Sodium citrate, however, is crystalline and the crystallinity is maintained even in the presence of other excipients.

The subject of another data set is Pa. To be noted: mouse; nasal instillation of a bolus of liquid; also under in vivo Pa biofilm colonization conditions; cited from earlier work.
A further data set deals with B. anthracis 7702 cells. In kind it is cell-based. Conditions: 1:1 gallium-to-citrate, approximately 20 hours of growth.
For data set [2], the system named is Pseudomonas aeruginosa (Pa). To be noted: against Pa; cited from earlier work.

Consider `O=[N+]([O-])[O-].O=[N+]([O-])[O-].O=[N+]([O-])[O-].[Ga+3]` [Gallium, gallium nitrate], for which the Crystalline/Amorphous result in data set [1] is on record as “amorphous”. The “protection after lethal i.t. Pa inoculation” value in the data set on Pa was “good protection”. In addition, the OD600 nm with B. anthracis 7702 cells (Gallium concentration 6.8 μM) was determined as 0.000; in the data set on B. anthracis 7702 cells (Gallium concentration 23.3 μM), 0.000; with B. anthracis 7702 cells (Gallium concentration 27.1 μM), 0.001; in the data set with B. anthracis 7702 cells (Gallium concentration 88.9 μM), 0.003; with B. anthracis 7702 cells (Gallium concentration 614.8 μM) it was 0.000; with B. anthracis 7702 cells (Gallium concentration 1709.9 μM), 0.000. For the same molecule, in data set [2], the “bactericidal concentration (MBC)” value is reported as “approximately 0.7 μg/mL”. In data set [2], the “minimum inhibitory concentration (MIC90)” value is on record as “approximately 0.7 μg/mL”.
